From ChEMBL document CHEMBL2440002, “The application of Heck reaction in the synthesis of guaianolide sesquiterpene lactones derivatives selectively inhibiting resistant acute leukemic cells” (Bioorg Med Chem Lett, 2013) come the findings set out here.

Each structure is given as a SMILES string. Some results are limits rather than exact numbers.

Assay [1] can be described thus: Induction of apoptosis in human HL60/A cells assessed as necrotic cells at 50 uM after 24 hrs by annexin V/propidium iodide based flow cytometry (reference value: 0.282 %). Type of assay: functional.
Assay [2] is described as follows: Induction of apoptosis in human HL60/A cells assessed as early apoptotic cells at 20 uM after 24 hrs by annexin V/propidium iodide based flow cytometry (reference value: 2.66 %). Type of assay: functional.
Assay [3] is described as follows: Cytotoxicity against human HL60/A cells after 72 hrs by MTT assay. The assay is classed as functional, cell-based. Background: Tetrazolium assays rely on reduction of a dye to a coloured formazan, in cell work by metabolically active cells.
A short description of assay [4]: Induction of apoptosis in human HL60/A cells assessed as late apoptotic cells at 50 uM after 24 hrs by annexin V/propidium iodide based flow cytometry (reference value: 1.82 %). The assay is classed as functional.
Assay [5] is described as follows: Induction of apoptosis in human HL60/A cells assessed as early apoptotic cells at 10 uM after 24 hrs by annexin V/propidium iodide based flow cytometry (reference value: 2.66 %). Type of assay: functional.
Assay [6] is described as follows: Induction of apoptosis in human HL60/A cells assessed as necrotic cells at 20 uM after 24 hrs by annexin V/propidium iodide based flow cytometry (reference value: 0.282 %). The assay is classed as functional. A general note: A flow cytometer gives signals particle by particle.
Assay [7] in a line: Induction of apoptosis in human HL60/A cells assessed as late apoptotic cells at 10 uM after 24 hrs by annexin V/propidium iodide based flow cytometry (reference value: 1.82 %). Type of assay: functional.
Assay [8] deals with HL-60. In words: Cytotoxicity against human HL60 cells after 72 hrs by MTT assay. The assay is classed as functional, cell-based. The following applies: HL-60, 72 h.
A short description of assay [9]: Induction of apoptosis in human HL60/A cells assessed as viable cells at 10 uM after 24 hrs by annexin V/propidium iodide based flow cytometry (reference value: 95.2 %). Type of assay: functional. As to conditions: read-out: Activity.
Assay [10] can be described thus: Induction of apoptosis in human HL60/A cells assessed as early apoptotic cells at 50 uM after 24 hrs by annexin V/propidium iodide based flow cytometry (reference value: 2.66 %). The assay is classed as functional.
The nature of assay [11]: Induction of apoptosis in human HL60/A cells assessed as viable cells at 20 uM after 24 hrs by annexin V/propidium iodide based flow cytometry (reference value: 95.2 %). As to conditions: read-out: Activity. The assay is classed as functional.
The nature of assay [12]: Induction of apoptosis in human HL60/A cells assessed as late apoptotic cells at 20 uM after 24 hrs by annexin V/propidium iodide based flow cytometry (reference value: 1.82 %). Type of assay: functional.
Assay [13] in a line: Induction of apoptosis in human HL60/A cells assessed as viable cells at 50 uM after 24 hrs by annexin V/propidium iodide based flow cytometry (reference value: 95.2 %). The following applies: read-out: Activity. The assay is classed as functional.
The nature of assay [14]: Induction of apoptosis in human HL60/A cells assessed as necrotic cells at 10 uM after 24 hrs by annexin V/propidium iodide based flow cytometry (reference value: 0.282 %). Type of assay: functional.

With `CCc1ccc(/C=C2/C(=O)O[C@H]3[C@H]2CCC(C)=C2CC[C@@](C)(O)[C@@H]23)cc1`, the Activity in assay [1] was found to be 11.7%; in assay [2] it was 4.66%; in assay [4], 85.9%; in [5] it was 3.14%; in assay [6], 5.51%; in [7], 6.61%. Further, the Activity in assay [10] is 1.5%; in assay [12], 23.8%; in assay [14] it was 1.03%. In addition, the IC50 was 6.2 µM in assay [3] and 31 µM in assay [8]. Further, the viability at 10 µM in assay [9] was 89.2%. Besides, the viability at 20 µM in assay [11] is 66%. In addition, the viability at 50 µM in assay [13] amounted to 0.94%.

On to `CC[Si](CC)(CC)O[C@]1(C)CCC2=C(C)CC[C@H]3/C(=C\c4ccccc4F)C(=O)O[C@@H]3[C@H]21`, for which the IC50 in [3] and in [8] was over 50 µM throughout.

For the compound `CC1=C2CC[C@@](C)(O)[C@@H]2[C@H]2OC(=O)/C(=C\c3cccc(F)c3)[C@@H]2CC1`, the 50% inhibitory concentration (IC50) in [3] and in assay [8] was over 50 µM in each case.

`CC1=C2CC[C@@](C)(O)[C@@H]2[C@H]2OC(=O)/C(=C\c3ccccc3F)[C@@H]2CC1`: the 50% inhibitory concentration (IC50) in assay [3] and in assay [8] was over 50 µM throughout.

As to `CC1=C2CC[C@@](C)(O)[C@@H]2[C@H]2OC(=O)/C(=C\c3ccc(F)cc3)[C@@H]2CC1`, the IC50 in assay [3] and in [8] was over 50 µM throughout.

In the case of `C=C1CC[C@H]2C(=C)CC[C@H]3/C(=C\c4ccc(F)cc4)C(=O)O[C@@H]3[C@@H]12`, the half-maximal inhibitory concentration (IC50) in assay [3] and in [8] was over 50 µM throughout.

For `CC[Si](CC)(CC)O[C@]1(C)CCC2=C(C)CC[C@H]3/C(=C\c4cccc(F)c4)C(=O)O[C@@H]3[C@H]21`, the IC50 in [3] and in assay [8] was over 50 µM throughout.

Regarding `CC[Si](CC)(CC)O[C@]1(C)CCC2=C(C)CC[C@H]3/C(=C/c4ccc(F)cc4)C(=O)O[C@@H]3[C@H]21`, the IC50 in assay [3] and in assay [8] was over 50 µM each time.

Take `C=C1CC[C@H]2C(=C)CC[C@H]3/C(=C\c4ccc(CC)cc4)C(=O)O[C@@H]3[C@@H]12`: the IC50 in [3] and in assay [8] was over 50 µM throughout.

With `C=C1CC[C@H]2C(=C)CC[C@H]3/C(=C/c4ccc(F)cc4)C(=O)O[C@@H]3[C@@H]12`, the IC50 in assay [3] and in [8] was over 50 µM each time.

On to `CCc1ccc(/C=C2\C(=O)O[C@H]3[C@H]2CCC(C)=C2CC[C@@](C)(O)[C@@H]23)cc1`, for which the IC50 in assay [3] and in assay [8] was over 50 µM throughout.

As to `C=C1CC[C@H]2C(=C)CC[C@H]3/C(=C/c4ccccc4)C(=O)O[C@@H]3[C@@H]12`, the IC50 in [3] and in [8] was over 50 µM throughout.

With `CC1=C2CC[C@@](C)(O)[C@@H]2[C@H]2OC(=O)/C(=C/c3ccc(F)cc3)[C@@H]2CC1`, the IC50 in assay [3] and in assay [8] was over 50 µM throughout.

With `C=C1C(=O)O[C@H]2[C@H]1CCC(C)=C1CC[C@@](C)(O[Si](CC)(CC)CC)[C@@H]12`, the values for the IC50 in assay [3] and in [8] were 7.2 µM and 8.4 µM, respectively.

With `CC1=C2CC[C@@](C)(O)[C@@H]2[C@H]2OC(=O)/C(=C\c3ccc(Cl)cc3)[C@@H]2CC1`, the IC50 in assay [3] and in assay [8] was over 50 µM throughout.

Turning to `CC[Si](CC)(CC)O[C@]1(C)CCC2=C(C)CC[C@H]3/C(=C\c4ccc(Cl)cc4)C(=O)O[C@@H]3[C@H]21`, the IC50 in assay [3] and in assay [8] was over 50 µM in each case.

Consider `CC[Si](CC)(CC)O[C@]1(C)CCC2=C(C)CC[C@H]3/C(=C\c4ccc(F)cc4)C(=O)O[C@@H]3[C@H]21`, for which the half-inhibitory concentration (IC50) in [3] and in assay [8] was over 50 µM in each case.

Turning to `CC1=C2CC[C@@](C)(O)[C@@H]2[C@H]2OC(=O)/C(=C/c3ccccc3F)[C@@H]2CC1`, the half-inhibitory concentration (IC50) in [3] and in [8] was over 50 µM in each case.

`CC1=C2CC[C@@](C)(O)[C@@H]2[C@H]2OC(=O)/C(=C/c3cccc(F)c3)[C@@H]2CC1`: the half-inhibitory concentration (IC50) was 32 µM in assay [3] and over 50 µM in assay [8].

`COc1cccc2c1C(=O)c1c(O)c3c(c(O)c1C2=O)C[C@@](O)(C(=O)CO)C[C@@H]3O[C@H]1C[C@H](N)[C@H](O)[C@H](C)O1` [DOXORUBICIN]: the IC50 in assay [3] was found to be 7.8 µM; in assay [8], 0.07 µM.

Regarding `CC[Si](CC)(CC)O[C@]1(C)CCC2=C(C)CC[C@H]3/C(=C/c4ccc(Cl)cc4)C(=O)O[C@@H]3[C@H]21`, the IC50 in [3] and in assay [8] was over 50 µM each time.

With `CCc1ccc(/C=C2/C(=O)O[C@H]3[C@H]2CCC(C)=C2CC[C@@](C)(O[Si](CC)(CC)CC)[C@@H]23)cc1`, the values for the half-inhibitory concentration (IC50) in assay [3] and in assay [8] were 9.2 µM and 45 µM, respectively.

Turning to `C=C1CC[C@H]2C(=C)CC[C@H]3/C(=C/c4cccc(C(F)(F)F)c4)C(=O)O[C@@H]3[C@@H]12`, the IC50 in assay [3] and in assay [8] was over 50 µM each time.

In the case of `C=C1CC[C@H]2C(=C)CC[C@H]3/C(=C\c4cc(OC)c(OC)c(OC)c4)C(=O)O[C@@H]3[C@@H]12`, the IC50 in [3] and in assay [8] was over 50 µM each time.

As to `C=C1CC[C@H]2C(=C)CC[C@H]3/C(=C\c4cccc(C(F)(F)F)c4)C(=O)O[C@@H]3[C@@H]12`, the values for the half-maximal inhibitory concentration (IC50) in assay [3] and in assay [8] were 17 µM and 24 µM, respectively.

On to `C=C1CC[C@H]2C(=C)CC[C@H]3/C(=C/c4ccc(CC)cc4)C(=O)O[C@@H]3[C@@H]12`, for which the half-maximal inhibitory concentration (IC50) in [3] and in [8] was over 50 µM throughout.

With `CC[Si](CC)(CC)O[C@]1(C)CCC2=C(C)CC[C@H]3/C(=C/c4ccccc4F)C(=O)O[C@@H]3[C@H]21`, the values for the IC50 in [3] and in assay [8] were 7.8 µM and 32 µM, respectively.

In the case of `C=C1CC[C@H]2C(=C)CC[C@H]3/C(=C\c4ccccc4F)C(=O)O[C@@H]3[C@@H]12`, the IC50 in assay [3] and in assay [8] was over 50 µM in each case.

As for `C=C1CC[C@H]2C(=C)CC[C@H]3/C(=C/c4ccc(Cl)cc4)C(=O)O[C@@H]3[C@@H]12`, the IC50 in [3] and in assay [8] was over 50 µM in each case.

Regarding `C=C1CC[C@H]2C(=C)CC[C@H]3/C(=C\c4ccccc4)C(=O)O[C@@H]3[C@@H]12`, the 50% inhibitory concentration (IC50) in [3] and in assay [8] was over 50 µM each time.

For `C=C1CC[C@H]2C(=C)CC[C@H]3/C(=C/c4ccccc4F)C(=O)O[C@@H]3[C@@H]12`, the 50% inhibitory concentration (IC50) in [3] and in assay [8] was over 50 µM throughout.

Consider `CC1=C2CC[C@@](C)(O)[C@@H]2[C@H]2OC(=O)/C(=C/c3ccc(Cl)cc3)[C@@H]2CC1`, for which the concentration for half-maximal inhibition (IC50) in assay [3] and in assay [8] was over 50 µM in each case.

Turning to `C=C1CC[C@H]2C(=C)CC[C@H]3/C(=C\c4ccc(Cl)cc4)C(=O)O[C@@H]3[C@@H]12`, the 50% inhibitory concentration (IC50) in assay [3] and in assay [8] was over 50 µM throughout.

Take `CC[Si](CC)(CC)O[C@]1(C)CCC2=C(C)CC[C@H]3/C(=C/c4cccc(F)c4)C(=O)O[C@@H]3[C@H]21`: the results for the IC50 in assay [3] and in [8] were 10 µM and 52 µM, respectively.

For the compound `C=C1CC[C@H]2C(=C)CC[C@H]3/C(=C/c4cc(OC)c(OC)c(OC)c4)C(=O)O[C@@H]3[C@@H]12`, the IC50 in assay [3] and in assay [8] was over 50 µM each time.

Regarding `CCc1ccc(/C=C2\C(=O)O[C@H]3[C@H]2CCC(C)=C2CC[C@@](C)(O[Si](CC)(CC)CC)[C@@H]23)cc1`, the IC50 was 19 µM in assay [3] and over 50 µM in assay [8].

What is called IC50 is the concentration at which inhibition is half-maximal. Low values mean inhibition by little substance, high ones a need for much substance.
